Patent US10894945B2, “Methods for improving proliferation and stemness of limbal stem cells” (CATHOLIC UNIVERSITY INDUSTRY ACADEMIC COOPERATION FOUNDATION, priority 2016, dated 2021)

Columns and labels:
[1] = test system: human limbal explant; test: Limbal explant outgrowth culture: outgrowth proliferation, area, cell yield, cell density; format: cell-based; settings: for stained outgrowth area / cell yields: 10 μM IWP2 or 3 μM CHIR99021; for stained outgrowth area: Commassie blue R 250 staining, compared with control (FIG. 2a, 2b); for cell yields: trypan blue, hemocytometer, compared with normal control (FIG. 2c); for outgrowth proliferation rates of the explant: 10 μM IWP2 or 3 μM CHIR99021 in medium, phase contrast microscope, day 4 and 8, compared with control (FIG. 1); for Cell count, Mean: Explant culture, Table 1
Experimental: The corneal limbal tissue satisfying the above-described conditions was splitted into […] using a surgical instrument on a horizontal sterile-air-flow hood, and the conjunctival edge of each quarter was immersed shortly in 1% trypan blue (Sigma, USA) to stain conjunctival stroma, and all remnants of conjunctiva were carefully removed using conjunctival scissors. Afterward, a sclera tissue was trimmed away, and then each limbal strip was prepared after being cut to a thickness of 0.5 mm using a sharp blade. First, a 0.4-μm pore polyester membrane insert (Costar, NY) with a diameter of 25 mm was put into a 6-well plate, and pre-equilibrated overnight cultured in a supplemented hormonal epithelial medium (SHEM). The SHEM was composed of 950 ml of Dulbecco's modified minimal essential medium (DMEM)/F-12 medium in which DMEM and Ham F12 are mixed in a ratio of 1:1, 50 ml of fetal bovine serum (FBS), 5 ng of a human recombinant epidermal growth factor (EGF), 28 mg of phosphoethanolamine, lx insulin-transferrin-selenium (ITS, Gibco), and 1× penicillin-streptomycin (Gibco). Afterward, the limbal tissue cut into 8 sections with a length of 4 mm according to the method described in Example 1-1 was put on a polyester membrane to dispose an epithelial part face-up, and cultured under an air-liquid interface condition. After 72 hours of culturing, the presence of an encircling island of outgrowth cells were confirmed, and then the medium was replaced with a fresh medium that just covered a surface of the explant, every 72 hours. Here, the cells were cultured with 10 μM of the Wnt inhibitor (IWP2) or 3 μM of the GSK3 inhibitor (CHIR99021), and then experiments that will be described below were performed. To identify effects of the Wnt/β-catenin signaling on the limbal explant outgrowth cultures, cells were cultured by adding 10 μM of the Wnt inhibitor IWP2 or 3 μM of the Wnt signaling agonist CHIR99021 as a GSK3 inhibitor to a medium under the culture conditions for a human limbal explant cultures according to the methods described in Examples 1-1 and 1-2, and explant outgrowth proliferation was observed using a phase contrast microscope on day 4 and 8. […] In addition, cells were harvested by treating the limbal explant cultures with trypsin, stained with a 0.4% trypan blue solution, and cell yields were measured using a hemocytometer and then cell densities were quantitatively analyzed.

[2] = test system: limbal stem cells (LSCs) in limbal explant outgrowth cultures; test: Flow cytometry of JC1 low side population in limbal explant outgrowth cultures; format: cell-based, human; settings: for % JC1^low, Mean: Explant culture, Table 1; for JC1 exclusion cell cohort (JC1^low) / percentage in a lower left quadrant (LLQ): limbal explant culture; for JC1 exclusion cell cohort (JC1^low): 10 μM IWP2 or 3 μM CHIR99021 (FIG. 3); for percentage in a lower left quadrant (LLQ): 10 μM IWP2 or 3 μM CHIR99021, FSC/SSC, stem/precursor somatic cells (FIG. 3)
Experimental: First, a 0.4-μm pore polyester membrane insert (Costar, NY) with a diameter of 25 mm was put into a 6-well plate, and pre-equilibrated overnight cultured in a supplemented hormonal epithelial medium (SHEM). The SHEM was composed of 950 ml of Dulbecco's modified minimal essential medium (DMEM)/F-12 medium in which DMEM and Ham F12 are mixed in a ratio of 1:1, 50 ml of fetal bovine serum (FBS), 5 ng of a human recombinant epidermal growth factor (EGF), 28 mg of phosphoethanolamine, lx insulin-transferrin-selenium (ITS, Gibco), and 1× penicillin-streptomycin (Gibco). […] After 72 hours of culturing, the presence of an encircling island of outgrowth cells were confirmed, and then the medium was replaced with a fresh medium that just covered a surface of the explant, every 72 hours. Here, the cells were cultured with 10 μM of the Wnt inhibitor (IWP2) or 3 μM of the GSK3 inhibitor (CHIR99021), and then experiments that will be described below were performed. In order to determine a relative cell size and ABCG2 efflux activity, cells from limal explant outgrowth cultures were harvested by treatment with trypsin, the collected cells were seeded in 6-well plates at a cell density of 2×10^4/well, treated with 250 nM JC1 dye and incubated for 45 minutes. Afterward, the cells were detached again by trypsin treatment and diluted with FACS buffer to perform FACS analysis. JC1 is a dye binding to mitochondria in cells, efflux of the JC1 dye from cells in a side population strongly expressing ATP-binding cassette sub-family G member 2 (ABCG2) results in inhibition of mitochondria staining. Therefore, flow cytometry was performed on the cells treated with the JC1 dye using a FACS Calibur (BD Biosciences) at an emission wavelength of 531(green)/585(orange), and the side population (JC1^low) that was not stained with JC1 was measured.

[3] = test system: LSC markers p63α and ABCG2, differentiation marker Krt3; test: Western blot of LSC markers and differentiation marker in limbal explant outgrowth cells; format: cell-based, human; settings: for expression of the differentiation marker Krt3: western blot (FIG. 4); for protein expression of LSC marker ABCG2 / protein expression of LSC marker p63α: western blot, compared with control (FIG. 4)
Experimental: First, a 0.4-μm pore polyester membrane insert (Costar, NY) with a diameter of 25 mm was put into a 6-well plate, and pre-equilibrated overnight cultured in a supplemented hormonal epithelial medium (SHEM). The SHEM was composed of 950 ml of Dulbecco's modified minimal essential medium (DMEM)/F-12 medium in which DMEM and Ham F12 are mixed in a ratio of 1:1, 50 ml of fetal bovine serum (FBS), 5 ng of a human recombinant epidermal growth factor (EGF), 28 mg of phosphoethanolamine, lx insulin-transferrin-selenium (ITS, Gibco), and 1× penicillin-streptomycin (Gibco). Afterward, the limbal tissue cut into 8 sections with a length of 4 mm according to the method described in Example 1-1 was put on a polyester membrane to dispose an epithelial part face-up, and cultured under an air-liquid interface condition. After 72 hours of culturing, the presence of an encircling island of outgrowth cells were confirmed, and then the medium was replaced with a fresh medium that just covered a surface of the explant, every 72 hours. Here, the cells were cultured with 10 μM of the Wnt inhibitor (IWP2) or 3 μM of the GSK3 inhibitor (CHIR99021), and then experiments that will be described below were performed. Limbal explant outgrowth cells were washed with PBS, and lysed with a lysis buffer containing phosphatase inhibitor cocktail 2 (Sigma-Aldrich) and protease inhibitor cocktail (Roche Diagnostics). A lysate was boiled with a sample-loading buffer for 10 minutes and then centrifuged, resulting in isolation of a supernatant containing proteins in the cells, and a protein concentration was quantified using a BCA Protein Assay kit (Thermo Fisher Scientific, Rockford, Ill.). Afterward, equal amounts of protein in cell lysates were separated by 10% SDS-polyacrylamide gel electrophoresis (SDS-PAGE) under reducing conditions and electro-transferred to a PVDF membrane (Millipore, Billerica, Mass.). Afterward, The membrane was blocked with 5% skim milk in PBS containing 0.1% Tween 20, incubated at 4° C. for 18 h with primary mouse monoclonal antibodies (Abs) recognizing, β-catenin (BD Biosciences), ABCG2 (Abcam), Krt3 (Abcam) or a rabbit polyclonal antibody recognizing p63α (Abcam). After the washes, the membrane was incubated with a horseradish peroxidase-binding anti-mouse or anti-rabbit secondary antibody at room temperature for 1 hour. The membrane incubating with the secondary antibody was washed with 0.1% Tween 20-added PBS three times, treated with an ECL solution (Amersham Biosciences, Sweden) as a chemiluminescence reagent and developed, thereby analyzing an expression level of a protein to be observed. Also, to correct protein levels of the samples, a mouse monoclonal anti-β-actin primary antibody reacted with the membrane, and subsequent procedures were the same as described above. To identify effects of the Wnt/β-catenin signaling on LSC differentiation during the limbal explant culture, expression levels of the LSC markers p63α and ABCG2, and the differentiation marker Krt3 protein in the explant outgrowth cells were detected by western blot analysis according to the method described in Example 1-5.

[4] = test system: limbal explant outgrowth cells; test: Colony forming efficiency assay of cells harvested from explant outgrowth cultures; format: cell-based, human; settings: cells from treated limbal explant outgrowth; cultured up to day 14; compared with control (FIG. 5)
Experimental: First, a 0.4-μm pore polyester membrane insert (Costar, NY) with a diameter of 25 mm was put into a 6-well plate, and pre-equilibrated overnight cultured in a supplemented hormonal epithelial medium (SHEM). The SHEM was composed of 950 ml of Dulbecco's modified minimal essential medium (DMEM)/F-12 medium in which DMEM and Ham F12 are mixed in a ratio of 1:1, 50 ml of fetal bovine serum (FBS), 5 ng of a human recombinant epidermal growth factor (EGF), 28 mg of phosphoethanolamine, lx insulin-transferrin-selenium (ITS, Gibco), and 1× penicillin-streptomycin (Gibco). […] After 72 hours of culturing, the presence of an encircling island of outgrowth cells were confirmed, and then the medium was replaced with a fresh medium that just covered a surface of the explant, every 72 hours. Here, the cells were cultured with 10 μM of the Wnt inhibitor (IWP2) or 3 μM of the GSK3 inhibitor (CHIR99021), and then experiments that will be described below were performed.

[5] = test system: human limbal epithelial cells; test: Flow cytometry of JC1 low ratio in isolated limbal epithelial cell (single cell) culture; format: cell-based; settings: Table 1
Experimental: (§1) The limbal tissue divided according to the method described in Example 1-1 was treated with 2 mg/ml Dispase II (Roche, Indianapolis, Ind.) diluted with keratinocyte medium (KSFM; Invitrogen, Carlsbad, Calif.) and overnight cultured at 4° C. Afterward, a limbal epithelium layer was gently sloughed off from its stromal base under the dissecting microscope, the epithelium layer was treated with TrypLE (GIBCO, Denmark) and cultured for 10 minutes, and then triturated with a pipette to generate a single cell suspension. These cells were seeded into a 25T flask coated with human type I collagen (PureCol^R, Biomatrix, SanDiego, Calif.) to be dispensed at a density of 2×10^5 cells/flask, and cultured in Cnt50 medium (Cell-N-Tec, Bern, Switzerland) complemented with bovine pituitary extract for up to 2 weeks.
In order to determine a relative cell size and ABCG2 efflux activity, cells from limal explant outgrowth cultures were harvested by treatment with trypsin, the collected cells were seeded in 6-well plates at a cell density of 2×10^4/well, treated with 250 nM JC1 dye and incubated for 45 minutes. […] Therefore, flow cytometry was performed on the cells treated with the JC1 dye using a FACS Calibur (BD Biosciences) at an emission wavelength of 531(green)/585(orange), and the side population (JC1^low) that was not stained with JC1 was measured. […]

[6] = test system: human limbal epithelial cells; test: Viable cell count / cell yield in isolated limbal epithelial cell (single cell) culture; format: cell-based; settings: for Cell count, Mean: Epithelial cells (single cell culture), Table 1
Experimental: as §1
According to Examples 2 to 4, it was identified that, in the limbal explant culture, the Wnt/β-catenin signaling is involved in the stimulation of explant outgrowth proliferation per unit area, and sternness improvement and differentiation inhibition of LSCs. Accordingly, an experiment was conducted to confirm whether the same effects as described above would be obtained, even when limbal epithelial cells were dissociated according to the method described in Example 1-3, and cultured as single cells. To this end, the limbal explant outgrowth cells according to the method described in Example 1-2 and the cells proliferated from the limbal epithelial cells according to the method described in Example 1-3 were harvested, and each type of cells was subjected to FACS analysis to measure a JC1^low ratio.
Based on the results of Example 6-1, cells cultured by the same method as described above were recovered to measure viable cell counts, yields of the limbal epithelial cells were measured.

SMILES	stained outgrowth area [1]	cell yields [1]	outgrowth proliferation rates of the explant [1]	Cell count, Mean [1]	% JC1^low, Mean [2] [%]	JC1 exclusion cell cohort (JC1^low) [2] [%]	percentage in a lower left quadrant (LLQ) [2] [%]	expression of the differentiation marker Krt3 [3]	protein expression of LSC marker ABCG2 [3]	protein expression of LSC marker p63α [3]	colony forming efficiency (CFE) [4]	% JC1^low, Mean [5] [%]	Cell count, Mean [6]	cell yields (viable cell counts) ([6]; single cell culture of limbal tissues (FIG. 6))	cell density ([1]; 10 μM IWP2, cells/mm^2, compared with control and CHIR99021 group (FIG. 2d))
Cc1c[nH]c(-c2cnc(NCCNc3ccc(C#N)cn3)nc2-c2ccc(Cl)cc2Cl)n1 [CHIR99021]	smaller area	significantly decreased	sequentially decreased	0.8 1 × 10^5	6.4	10.9±1.3	50.7±10.1	increased	remarkably decreased	remarkably decreased	remarkably lower CFE	23.9	7.0 1 × 10^5	very low	
Cc1ccc2nc(NC(=O)CSc3nc4c(c(=O)n3-c3ccccc3)SCC4)sc2c1 [IWP2, N-(6-Methyl-2-benzothiazolyl)-2-[(3,4,6,7-tetrahydro-4-oxo-3-phenylthieno[3,2-d]pyrimidin-2-yl)thio]-acetamide]	subsequently increased	no difference in cell yields	sequentially decreased	4.3 1 × 10^5	27.9	29.6±2.6	72.8±1.9	barely expressed	remarkably increased	remarkably increased	remarkably higher CFE	9.8	4.1 1 × 10^5		highest cell density
